Our source for the EC50 and IC50 values is US8309558B2, “Compounds for the treatment of hepatitis C” (Bristol-Myers Squibb Company, priority 2008, dated 2012).

SMILES strings stand for the structures. Where two headings read alike, the source gives them in different places. Some results are limits rather than exact numbers.

For test [1], the system named is HCV replicon cells. The experiment in a line: HCV replicon FRET / luciferase assay (96-well plates). Type of test: cell-based. Particulars: Hepatitis C virus, HCV replicon, read-out: EC50. In outline:
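Replicon cells (with or without Renilla luciferase reporter) incubated with titrated compounds at 37 °C; Alamar blue read for cytotoxicity first. NS3 protease activity read kinetically with 20 μM EDANS/DABCYL FRET peptide in lysis reagent plus 150 mM NaCl (ex 340/em 490), or by Dual-Glo luciferase. EC50 = 50% signal reduction after protease-inhibitor background subtraction.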
(In general: A replicon is a self-replicating genome or part of one, used to study replication in cells.)

The target of test [2] is T1, HCV NS5B RdRp genotype 1b (Hepatitis C virus genotype 1b, UniProt Q9WMX2).
T1 construct: The protein was expressed with an 18 amino acid C-terminal truncation to enhance the solubility; made in house; host or cells: E. coli BL21(DE3), pET21a vector
In words: Standard HCV NS5B RdRp enzyme assay. Type of test: biochemical. Particulars: HCV NS5B RdRp genotype 1b, read-out: IC50. A digest of the protocol: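 C-terminally truncated (18 aa) genotype 1b NS5B from E. coli, 28 nM, with 6 nM polyA template, 180 nM biotinylated oligo-dT12 primer and 3H-UTP (0.29 μM total UTP). Hepes pH 7.5 buffer with 2% DMSO; 60 min at 30° C. EDTA stop, SPA read-out; IC50 from seven concentrations by four-parameter fit.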

T1 sequence (Q9WMX2 2420-2992): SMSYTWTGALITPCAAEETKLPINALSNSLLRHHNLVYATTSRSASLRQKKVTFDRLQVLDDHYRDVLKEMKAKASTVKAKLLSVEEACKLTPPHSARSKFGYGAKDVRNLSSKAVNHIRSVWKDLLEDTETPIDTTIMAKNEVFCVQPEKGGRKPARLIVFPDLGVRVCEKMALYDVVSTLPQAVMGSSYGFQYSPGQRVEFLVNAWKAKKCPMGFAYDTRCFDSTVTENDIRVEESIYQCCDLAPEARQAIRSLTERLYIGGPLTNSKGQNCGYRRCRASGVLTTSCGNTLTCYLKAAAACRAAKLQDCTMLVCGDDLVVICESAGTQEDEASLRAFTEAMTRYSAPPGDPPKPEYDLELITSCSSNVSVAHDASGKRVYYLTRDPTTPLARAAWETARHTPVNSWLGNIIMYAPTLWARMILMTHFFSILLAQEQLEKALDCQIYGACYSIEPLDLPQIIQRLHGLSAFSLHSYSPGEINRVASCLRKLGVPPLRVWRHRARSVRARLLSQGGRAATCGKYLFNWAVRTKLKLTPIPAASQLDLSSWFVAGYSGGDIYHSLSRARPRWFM

As usually defined, the EC50 is the concentration that produces a half-maximal response. The IC50 is the concentration that gives 50% inhibition. As to `CCC(NC(=O)c1cc(-c2ccc3oc(-c4ccc(F)cc4)c(C(=O)NC)c3c2F)c(C)cc1OC)c1ncccn1` (stereo not shown), in test [1] (Table 1b), the EC50 was < 250 nM. Further, the IC50 in test [2] (Table 1b) is < 250 nM.

As to `CNC(=O)c1c(-c2ccc(F)cc2)oc2ccc(-c3cc(C(=O)NCC(C)C)ccc3OC3CCCC3)cc12`, the EC50 in test [1] (Table 1b) was 1000 to 10000 nM. In addition, the IC50 in test [2] (Table 1b) is > 10000 nM.

Take `CNC(=O)c1c(-c2ccc(F)cc2)oc2ccc(-c3cccc(C(=O)N4CCCCC4C)c3)cc12` (stereo not shown) [drawing 208]: the EC50 in test [1] (Table 1a) fell in the range of 1000 to 10000 nM. In addition, the IC50 in test [2] (Table 1a) was in the range of 250 to 1000 nM.

Turning to `CNC(=O)c1c(-c2ccc(F)cc2)oc2ccc(-c3cccc(C(=O)NC(C)(C)c4ccccc4)c3)c(NC(C)=O)c12`, the EC50 in test [1] (Table 1a) is 1000 to 10000 nM. Also, the IC50 in test [2] (Table 1a) fell in the range of 1000 to 10000 nM.

With `CNC(=O)c1c(-c2ccc(F)cc2)oc2ccc(-c3cccc(C(=O)N4Cc5ccccc5C4)c3)cc12`, in test [1] (Table 1a), the EC50 was > 10000 nM. In test [2] (Table 1a), the IC50 was > 400 nM.

On to `CNC(=O)c1c(-c2ccc(F)cc2)oc2cc(N(CCO)S(C)(=O)=O)c(-c3cc(C(=O)NC4(c5ccccc5)CC4)ccc3C)cc12`, for which the EC50 in test [1] (Table 1b) is < 250 nM. The IC50 in test [2] (Table 1b) was < 250 nM.

Regarding `CNC(=O)c1c(-c2ccc(F)cc2)oc2cc(N(CCO)S(C)(=O)=O)c(-c3cccc(C(=O)NC4(c5ccccc5)CC4)c3)cc12`, in test [1] (Table 1b), the EC50 was < 250 nM. Moreover, in test [2] (Table 1b), the IC50 was < 250 nM.

Turning to `C#CCNC(=O)c1cccc(-c2ccc3oc(-c4ccc(F)cc4)c(C(=O)NC)c3c2)c1`, in test [1] (Table 1a), the EC50 is 1000 to 10000 nM. Also, the IC50 in test [2] (Table 1a) lay within 250 to 1000 nM.

On to `CNC(=O)c1c(-c2ccc(F)cc2)oc2ccc(-c3cc(C(=O)NC4(c5cc(C)on5)CC4)c(OC)cc3C)cc12`, for which the EC50 in test [1] (Table 1b) was < 250 nM. The IC50 in test [2] (Table 1b) was < 250 nM.

With `CNC(=O)c1c(-c2ccc(F)cc2)oc2ccc(-c3cc(C(=O)NCC(C)C)ccc3OCCN3CCOCC3)cc12`, the EC50 in test [1] (Table 1b) is < 250 nM. Further, the IC50 in test [2] (Table 1b) was < 250 nM.

Consider `CNC(=O)c1c(-c2ccc(F)cc2)oc2ccc(OCCOc3ccc(C(C)(C)C)cc3)cc12`, for which the EC50 in test [1] (Table 1a) lay in the range of 1000 to 10000 nM. Moreover, the IC50 in test [2] (Table 1a) is > 10000 nM.

Regarding `CNC(=O)c1c(-c2ccc(F)cc2)oc2ccc(-c3cc(C(=O)NCC(C)C)ccc3OCCc3c[nH]c4ccccc34)cc12`, the EC50 in test [1] (Table 1b) lay in the range of 1000 to 10000 nM. Moreover, in test [2] (Table 1b), the IC50 was 1000 to 10000 nM.

Regarding `CNC(=O)c1c(-c2ccc(F)cc2)oc2ccc(-c3cc(C(=O)NCC(C)C)ccc3OCC(N)=O)cc12`, the EC50 in test [1] (Table 1b) was < 250 nM. The IC50 in test [2] (Table 1b) is < 250 nM.

On to `CNC(=O)c1c(-c2ccc(F)cc2)oc2ccc(-c3cc(C(=O)NC4(c5ccccn5)CC4)c(F)cc3O)cc12`, for which the EC50 in test [1] (Table 1b) was 250 to 1000 nM. Moreover, in test [2] (Table 1b), the IC50 was < 250 nM.

Regarding `CNC(=O)c1c(-c2ccc(F)cc2)oc2ccc(-c3ccc(Cl)c(C(=O)NC(C)(C)c4ccccc4)c3)cc12`, the EC50 in test [1] (Table 1a) was < 250 nM. In addition, the IC50 in test [2] (Table 1a) is < 250 nM.

Turning to `CNC(=O)c1c(-c2ccc(F)cc2)oc2ccc(-c3cccc(C(=O)Nn4c(C)nnc4C)c3)cc12`, the EC50 in test [1] (Table 1a) was > 10000 nM. In addition, the IC50 in test [2] (Table 1a) fell in the range of 250 to 1000 nM.

Regarding `CNC(=O)c1c(-c2ccc(F)cc2)oc2ccc(-c3cc(C(=O)NCC(C)C)ccc3OC(F)(F)F)cc12`, the EC50 in test [1] (Table 1b) was > 10000 nM. Also, the IC50 in test [2] (Table 1b) was 250 to 1000 nM.

Take `CNC(=O)c1c(-c2ccc(F)cc2)oc2ccc(-c3cc(C(=O)NCC(C)C)ccc3OCC(C)O)cc12` (stereo not shown): in test [1] (Table 1b), the EC50 was < 250 nM. In test [2] (Table 1b), the IC50 was < 250 nM.

Consider `CNC(=O)c1c(-c2ccc(F)cc2)oc2ccc(-c3cc(C(=O)NCC(C)C)ccc3OCCO)cc12`, for which the EC50 in test [1] (Table 1b) was < 250 nM. Further, in test [2] (Table 1b), the IC50 is < 250 nM.

In the case of `CNC(=O)c1c(-c2ccc(F)cc2)oc2ccc(-c3ccc(F)cc3OCc3ccccc3)cc12`, in test [1] (Table 1a), the EC50 lay in the range of 1000 to 10000 nM. Moreover, the IC50 in test [2] (Table 1a) is > 10000 nM.

In the case of `CNC(=O)c1c(-c2ccc(F)cc2)oc2ccc(-c3c(C)ccc(C(=O)NC4(c5ccccn5)CC4)c3F)cc12`, the EC50 in test [1] (Table 1b) was < 250 nM. Besides, in test [2] (Table 1b), the IC50 was < 20 nM.

For the compound `CNC(=O)c1c(-c2ccc(F)cc2)oc2ccc(-c3cc(OCCCCN)cc(C(=O)NCC(C)C)c3)cc12`, the EC50 in test [1] (Table 1b) was in the range of 1000 to 10000 nM. Moreover, the IC50 in test [2] (Table 1b) was < 250 nM.

`CCOC(=O)[C@H](C)NC(=O)c1cccc(-c2ccc3oc(-c4ccc(F)cc4)c(C(=O)NC)c3c2)c1`: the EC50 in test [1] (Table 1a) lay within 1000 to 10000 nM. Besides, the IC50 in test [2] (Table 1a) is < 250 nM.

Take `CNC(=O)c1c(-c2ccc(F)cc2)oc2ccc(-c3cccc(C(=O)N(C)CC(C)C)c3)cc12`: in test [1] (Table 1a), the EC50 was in the range of 250 to 1000 nM. Moreover, the IC50 in test [2] (Table 1a) is < 250 nM.

Consider `CNC(=O)c1c(-c2ccc(F)cc2)oc2ccc(-c3cc(C(=O)NC4(c5ncc(C)s5)CC4)ccc3C)cc12` [drawing 708], for which, in test [1] (24 h, second table titled Table 1d (numbers)), the EC50 was 1.9 nM. Moreover, the IC50 in test [2] (second table titled Table 1d (numbers)) is < 17 nM.

As to `CNC(=O)c1c(-c2ccc(F)cc2)oc2ccc(-c3cccc(C(=O)NC(C)(C)C(=O)NCC(F)F)c3)cc12`, the EC50 in test [1] (Table 1a) was < 250 nM. Also, the IC50 in test [2] (Table 1a) was < 250 nM.

For the compound `CNC(=O)c1c(-c2ccc(F)cc2)oc2ccc(-c3cccc(C(=O)NCCC(C)C)c3)cc12`, the EC50 in test [1] (Table 1a) was < 250 nM. In test [2] (Table 1a), the IC50 lay in the range of 250 to 1000 nM.

Take `CNC(=O)c1c(-c2ccc(F)cc2)oc2ccc(-c3cccc(C(=O)NCc4ccccc4O)c3)cc12`: the EC50 in test [1] (Table 1a) is 1000 to 10000 nM. Moreover, in test [2] (Table 1a), the IC50 is 250 to 1000 nM.

As to `CNC(=O)c1c(-c2ccc(F)cc2)oc2ccc(-c3cccc(CCC(=O)O)c3)cc12`, the EC50 in test [1] (Table 1a) was > 10000 nM. In addition, the IC50 in test [2] (Table 1a) lay within 1000 to 10000 nM.

In the case of `CNC(=O)c1c(-c2ccc(F)cc2)oc2ccc(-c3ccc(C(=O)N(C)CCc4ccccn4)cc3)cc12`, in test [1] (Table 1a), the EC50 is < 250 nM. Also, the IC50 in test [2] (Table 1a) was < 250 nM.

`CNC(=O)c1c(-c2ccc(F)cc2)oc2ccc(-c3cccc(C(=O)N[C@@H](CO)CC(C)C)c3)cc12`: in test [1] (Table 1a), the EC50 fell in the range of 1000 to 10000 nM. In addition, the IC50 in test [2] (Table 1a) lay within 1000 to 10000 nM.

Regarding `CNC(=O)c1c(-c2ccc(F)cc2)oc2ccc(-c3ccc(NC(=O)OC(C)(C)C)cc3)cc12`, the EC50 in test [1] (Table 1a) is > 400 nM. For the same compound, in test [2] (Table 1a), the concentration for half-maximal inhibition (IC50) is > 10000 nM.

For the compound `CNC(=O)c1c(-c2ccc(F)cc2)oc2ccc(-c3ccc(NC(=O)CCC(=O)O)cc3)cc12`, the EC50 in test [1] (Table 1a) is > 10000 nM. The IC50 in test [2] (Table 1a) is 1000 to 10000 nM.

For `CNC(=O)c1c(-c2ccc(F)cc2)oc2cc(N)c(-c3cccc(C(=O)NC(C)(C)c4ccccc4)c3)cc12` [drawing 607], the EC50 in test [1] (untitled table after Table 1b, values without asterisk) turned out to be 2.47 nM. Moreover, the IC50 in test [2] (untitled table after Table 1b) was found to be 5.45 nM.

Turning to `CCCC#CCOc1ccc(C(=O)NCC(C)C)cc1-c1ccc2oc(-c3ccc(F)cc3)c(C(=O)NC)c2c1`, the EC50 in test [1] (Table 1b) is 1000 to 10000 nM. Besides, in test [2] (Table 1b), the IC50 was in the range of 1000 to 10000 nM.

Take `CNC(=O)c1c(-c2ccc(F)cc2)oc2ccc(-c3cccc(C(=O)N(C)CCC#N)c3)cc12` [drawing 204]: the EC50 in test [1] (Table 1a) fell in the range of 1000 to 10000 nM. Also, in test [2] (Table 1a), the IC50 was in the range of 250 to 1000 nM.

Consider `CNC(=O)c1c(-c2ccc(F)cc2)oc2ccc(-c3cccc(C(=O)N(C)C)c3)cc12`, for which the EC50 in test [1] (Table 1a) was 1000 to 10000 nM. In addition, in test [2] (Table 1a), the IC50 fell in the range of 1000 to 10000 nM.

With `CNC(=O)c1c(-c2ccc(F)cc2)oc2ccc(-c3cccc(C(=O)NC(C)c4ccc(F)cc4)c3)cc12` (stereo not shown), the EC50 in test [1] (Table 1a) is < 250 nM. The IC50 in test [2] (Table 1a) was < 250 nM.

In the case of `CNC(=O)c1c(-c2ccc(F)cc2)oc2ccc(-c3cccc(C(=O)Nc4ccc(OC)cc4)c3)cc12`, the EC50 in test [1] (Table 1a) is < 250 nM. Also, in test [2] (Table 1a), the IC50 is < 250 nM.

In the case of `CNC(=O)c1c(-c2ccc(F)cc2)oc2ccc(-c3cccc(C(=O)NCC4CCOCC4)c3)cc12`, in test [1] (Table 1a), the EC50 was in the range of 250 to 1000 nM. Also, the IC50 in test [2] (Table 1a) is < 250 nM.

Consider `CNC(=O)c1c(-c2ccc(F)cc2)oc2ccc(-c3ccc(-c4cncc(C#N)c4)c(C(=O)NCC(C)C)c3)cc12`, for which the EC50 in test [1] (Table 1b) fell in the range of 250 to 1000 nM. In addition, the IC50 in test [2] (Table 1b) is < 250 nM.
